Values after ≈ are worked out from the molar mass of the structure shown.
How the values were obtained:
[1] = molecular target: T1, human soluble guanylate cyclase alpha 1 and beta 1 subunits (sGC) (Homo sapiens, UniProt Q02108+Q02153); test: sGC cellular activator assay (cGMP, HTRF); type: cell-based; settings: CHO cells stably expressing human sGC alpha 1/beta 1, preincubated with 40 microM ODQ; cGMP readout; assay run with and without 50% human serum, Table 2 does not say which
T1 construct: expressed in transfected cells; host or cells: Chinese hamster ovary (CHO) cells, stably transfected
T1 sequence (Q02108 1-690): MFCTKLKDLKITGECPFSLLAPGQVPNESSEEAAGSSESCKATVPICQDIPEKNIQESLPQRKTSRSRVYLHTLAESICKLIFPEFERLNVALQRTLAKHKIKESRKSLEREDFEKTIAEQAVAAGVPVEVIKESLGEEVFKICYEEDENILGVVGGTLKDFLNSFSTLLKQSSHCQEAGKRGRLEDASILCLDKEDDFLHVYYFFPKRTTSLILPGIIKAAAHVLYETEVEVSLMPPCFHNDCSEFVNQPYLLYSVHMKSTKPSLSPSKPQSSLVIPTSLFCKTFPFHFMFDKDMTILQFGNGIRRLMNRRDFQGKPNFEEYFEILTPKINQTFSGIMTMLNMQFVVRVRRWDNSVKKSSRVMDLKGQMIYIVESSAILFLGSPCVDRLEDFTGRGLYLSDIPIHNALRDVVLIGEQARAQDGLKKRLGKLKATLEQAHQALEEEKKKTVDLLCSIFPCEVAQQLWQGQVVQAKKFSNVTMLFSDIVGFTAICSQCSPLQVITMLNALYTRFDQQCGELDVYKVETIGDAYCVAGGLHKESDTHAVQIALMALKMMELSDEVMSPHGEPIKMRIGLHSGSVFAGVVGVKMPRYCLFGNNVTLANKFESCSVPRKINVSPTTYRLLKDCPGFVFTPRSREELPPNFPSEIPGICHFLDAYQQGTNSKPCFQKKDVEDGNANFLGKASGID
T1 sequence (Q02153 1-619): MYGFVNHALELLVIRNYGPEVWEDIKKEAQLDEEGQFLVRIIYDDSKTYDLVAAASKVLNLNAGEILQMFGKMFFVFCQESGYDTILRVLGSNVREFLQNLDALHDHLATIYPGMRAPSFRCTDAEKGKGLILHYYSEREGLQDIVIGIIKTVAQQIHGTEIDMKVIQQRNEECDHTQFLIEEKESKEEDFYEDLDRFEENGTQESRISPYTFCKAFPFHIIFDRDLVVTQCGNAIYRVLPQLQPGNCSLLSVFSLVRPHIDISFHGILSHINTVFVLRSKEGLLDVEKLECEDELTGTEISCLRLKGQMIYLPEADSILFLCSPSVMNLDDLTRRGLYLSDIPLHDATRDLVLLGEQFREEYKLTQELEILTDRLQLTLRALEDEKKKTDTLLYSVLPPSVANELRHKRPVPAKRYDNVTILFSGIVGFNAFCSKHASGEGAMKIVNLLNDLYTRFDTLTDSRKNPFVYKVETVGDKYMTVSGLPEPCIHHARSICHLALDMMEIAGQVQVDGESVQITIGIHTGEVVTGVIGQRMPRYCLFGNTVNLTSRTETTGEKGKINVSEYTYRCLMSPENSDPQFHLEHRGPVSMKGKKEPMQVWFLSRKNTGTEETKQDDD
Description: The sGC cellular activator assay is performed in the presence and absence of 50% human serum (HS) using Chinese hamster ovary cells that have been stably transfected to express the human soluble guanylate cyclase alpha 1 and beta 1 subunits (sGC). Cells are preincubated with 40 microM 1H-[1,2,4]oxadiazolo[4,3-a]quinoxalin-1-one (ODQ), an sGC inhibitor, for one h in buffer containing 0.1% bovine serum albumin and 3-isobutyl-1-methylxanthine (IBMX). Concentration response curves are prepared for test compounds in DMSO. An intermediate dilution of the compounds is performed in either buffer containing IBMX or type AB HS containing IBMX. Diluted compounds are added to cells and they are incubated at room temperature for thirty min. cGMP is measured using a CisBio homogeneous time resolved fluorescence kit and the EC50 is calculated for each compound.
Representative compounds of the present invention were tested for activity the above assay. Preferred compounds have an EC50 of <1,000 nM in the above assay and more preferred compounds have an EC50<200 nM.

[2] = Assessment of solubility (McIlvaine buffers, 24 h shake, UPLC-UV); type: physicochemical; settings: kinetic from dmso stock
Description: Solubility is measured by the following method.
100 uL, 10 mM DMSO stock solution of each compound is prepared in a 96 well plate format. The experiment is done in single determination at 3 pH values (2.2, 4.5 and 6.8). For each pH and one reference, 40 uL of each compound is needed.
McIlvaine pH 2.2: To 2.076 g citric acid monohydrate and 0.043 g Na2HPO4×2H2O add 100 ml deionized water
McIlvaine pH 4.5: To 1.166 g citric acid monohydrate and 1.585 g Na2HPO4×2H2O add 100 ml deionized water
McIlvaine pH 6.8: To 0.476 g citric acid monohydrate and 2.753 g Na2HPO4×2H2O add 100 ml deionized water
With a suitable liquid handling device (Multipette® or a liquid handler) 390 uL of each buffer solution and 10 uL of compound is added to each well of a 96 deep well plate. The plates are covered firmly and shaken for 24 h on an over head shaker (at 54 RPM) at room temperature. The DMSO content in the final buffer is 2.5% v/v.
After 24 h the plates are centrifuged to remove droplets on the lid before opening (for ˜5 min at 2500 RPM).
The filtration is done under vacuum with Millipore 96 well filter plate. Filtrate is collected in a deep well plate and transferred to a suitable plate for UPLC analysis.
The reference plate is prepared by adding 10 uL of compound to 390 uL of 50:50 acetonitrile/water in a 96 deep well plate and transferred to a suitable plate for UPLC analysis. Wells are checked visually for precipitation, any presence noted under comments in reported results.
The samples are measured with UPLC-UV using the chromatographic method described below.
Waters Empower®2 software is used for generating Sample Sets (according to the plate layout), Sample Set Methods and Instrument Methods.
One Sample Set comprises the methods for three 96 well plates (one reference plate and two sample plates, and includes one Sample Set Method and one Instrument Method).
3. Data Processing and Analysis
The UV chromatograms collected at 254 nm are integrated and processed.
It is assumed that the compound is completely dissolved in the reference solution (50:50 acetonitrile/water)

Row | SMILES | EC50 [1] [nM] | solubility at 24 h ([2]; pH 2.2, aqueous buffer) [µg/mL] | solubility at 24 h ([2]; pH 4.5, aqueous buffer) [µg/mL] | solubility at 24 h ([2]; pH 6.8, aqueous buffer) [µg/mL]
1 | CCOc1c(C(=O)O)cnn1-c1cccc(-c2cccc(C)c2OCc2ccc3c(c2C)CCN([C@@H]2CCCOC2)C3)n1 [Compound 128] | 15 | 93 (≈ 160 µM) | 77 (≈ 132 µM) | 78 (≈ 134 µM)
2 | CCOc1c(C(=O)O)cnn1-c1cccc(-c2cccc(C)c2OCc2ccc3c(c2C)CCN([C@H]2CCCOC2)C3)n1 [Compound 129] | 17 | 95 (≈ 163 µM) | 79 (≈ 136 µM) | 79 (≈ 136 µM)
3 | COc1c(C(=O)O)cnn1-c1cccc(-c2cccc(C)c2OCc2ccc3c(c2)OCCN(C2CCOCC2)C3)n1 [Compound 130] | 21 | 130 (≈ 228 µM) | 100 (≈ 175 µM) | 110 (≈ 193 µM)
4 | CCOc1c(C(=O)O)cnn1-c1cccc(-c2cccc(C)c2OCc2ccc3c(c2)OCCN(C2CCOCC2)C3)n1 [Compound 131] | 410 | 130 (≈ 222 µM) | 97 (≈ 166 µM) | 110 (≈ 188 µM)
5 | CCCOc1c(C(=O)O)cnn1-c1cccc(-c2cccc(C)c2OCc2ccc3c(c2C)CCN(C2CCOCC2)C3)n1 [Compound 133] | 27 | 120 (≈ 201 µM) | 99 (≈ 166 µM) | 100 (≈ 168 µM)
6 | Cc1cccc(-c2cccc(-n3ncc(C(=O)O)c3OCC(C)C)n2)c1OCc1ccc2c(c1C)CCN(C1CCOCC1)C2 [Compound 134] | 46 | 110 (≈ 180 µM) | 94 (≈ 154 µM) | 100 (≈ 164 µM)
7 | CC[C@H](C)Oc1c(C(=O)O)cnn1-c1cccc(-c2cccc(C)c2OCc2ccc3c(c2C)CCN(C2CCCOC2)C3)n1 (stereo partly drawn) [Compound 135] | 54 | 110 (≈ 180 µM) | 97 (≈ 159 µM) | 100 (≈ 164 µM)
8 | CC[C@H](C)Oc1c(C(=O)O)cnn1-c1cccc(-c2cccc(C)c2OCc2ccc3c(c2C)CCN(C2CCOCC2)C3)n1 [Compound 136] | 81 | 120 (≈ 196 µM) | 100 (≈ 164 µM) | 110 (≈ 180 µM)
9 | CC[C@H](C)Oc1c(C(=O)O)cnn1-c1cccc(-c2cccc(C)c2OCc2ccc3c(c2C)CCN(C2CCOC2)C3)n1 (stereo partly drawn) [Compound 137] | 89 | 110 (≈ 184 µM) | 98 (≈ 164 µM) | 110 (≈ 184 µM)
10 | COc1c(C(=O)O)cnn1-c1cccc(-c2cccc(C)c2OCc2ccc3c(c2C)CCN(C[C@@H]2COCCO2)C3)n1 [Compound 139] | 8.4 | 130 (≈ 222 µM) | 110 (≈ 188 µM) | 120 (≈ 205 µM)
11 | COc1c(C(=O)O)cnn1-c1cccc(-c2cccc(C)c2OCc2ccc3c(c2C)CCN([C@@H]2CCCOC2)C3)n1 [Compound 140] | 15 | 140 (≈ 246 µM) | 120 (≈ 211 µM) | 120 (≈ 211 µM)
12 | COc1c(C(=O)O)cnn1-c1cccc(-c2cccc(C)c2OCc2ccc3c(c2C)CCN([C@H]2CCCOC2)C3)n1 [Compound 141] | 17 | 130 (≈ 229 µM) | 110 (≈ 193 µM) | 110 (≈ 193 µM)

Reference: patent publication US8906904B2, “Alkoxy pyrazoles as soluble guanylate cyclase activators” (Boehringer Ingelheim International GmbH, priority 2012, dated 2014)
